From patent US20260345596A1, “TREATMENT OF LOCALLY ADVANCED OR METASTATIC UROTHELIAL CARCINOMA WITH ERDAFINITIB” (priority 2023, published 2026)

Assay: Study BLC3001 (NCT03390504, THOR) Cohort 1: safety, adverse events, laboratory abnormalities and exposure
Settings: for Central serous retinopathy / Chorioretinopathy / Detachment of macular retinal pigment epithelium / Detachment of retinal pigment epithelium / Eye disorders (excluding central serous retinopathy) / Macular detachment / Nail disorders / Retinopathy / Skin disorders / Subretinal fluid: adverse events of interest; for Hematuria / Hyponatremia / Urinary tract infection: serious adverse events, any cause

In the case of `COc1cc(OC)cc(N(CCNC(C)C)c2ccc3ncc(-c4cnn(C)c4)nc3c2)c1` [Erdafitinib, N-(3,5-dimethoxyphenyl)-N′-(1-methylethyl)-N-[3-(1-methyl-1H-pyrazol-4-yl)quinoxalin-6-yl]ethane-1,2-diamine], the “Ongoing central serous retinopathy events of grade 1” value (5 of 7 ongoing) is reported as 71%, the “Central serous retinopathy events resolved by clinical cutoff” value (16 of 23 patients, any grade) is reported as 70% and the Central serous retinopathy (Grade 1) is reported as 12 (8.9) no. (%). For the same compound, the Chorioretinopathy (Grade 1) was 5 (3.7) no. (%), the “Detachment of macular retinal pigment epithelium” value (Grade 1) was 0 no. (%) and the “Detachment of retinal pigment epithelium” value (Grade 1) was 3 (2.2) no. (%). For the same compound, the “Eye disorders (excluding central serous retinopathy)” value (“Eye disorders” below) (Grade 1) was 37 (27.4) no. (%), the Macular detachment (Grade 1) was 2 (1.5) no. (%) and the Nail disorders (Grade 1) was 25 (18.5) no. (%). For the same compound, the Retinopathy (Grade 1) was 0 no. (%), the Skin disorders (Grade 1) was 27 (20) no. (%) and the Subretinal fluid (Grade 1) was 4 (3.0) no. (%). For the same compound, the Hematuria (Grade 1) was 0 no. (%), the Hyponatremia (Grade 1) was 0 no. (%) and the Urinary tract infection (Grade 1) was 0 no. (%). The Alanine aminotransferase increased (Grade 1, treatment-emergent) was 28 (20.7) no. (%), the Alopecia (Grade 1, treatment-emergent) was 29 (21.5) no. (%) and the Anemia (Grade 1, treatment-emergent) was 10 (7.4) no. (%). The Aspartate aminotransferase increased (Grade 1, treatment-emergent) was 21 (15.6) no. (%), the Asthenia (Grade 1, treatment-emergent) was 6 (4.4) no. (%) and the Constipation (Grade 1, treatment-emergent) was 24 (17.8) no. (%). For the same compound, the Decreased appetite (Grade 1, treatment-emergent) was 18 (13.3) no. (%), the Diarrhea (Grade 1, treatment-emergent) was 49 (36.3) no. (%) and the Dry eye (Grade 1, treatment-emergent) was 20 (14.8) no. (%). For the same compound, the Dry mouth (Grade 1, treatment-emergent) was 45 (33.3) no. (%), the Dry skin (Grade 1, treatment-emergent) was 23 (17.0) no. (%) and the Dysgeusia (Grade 1, treatment-emergent) was 28 (20.7) no. (%). For the same compound, the Fatigue (Grade 1, treatment-emergent) was 12 (8.9) no. (%), the Hyperphosphatemia (Grade 1, treatment-emergent) was 70 (51.9) no. (%) and the Nausea (Grade 1, treatment-emergent) was 10 (7.4) no. (%). The Neutropenia (Grade 1, treatment-emergent) was 0 no. (%), the Onycholysis (Grade 1, treatment-emergent) was 9 (6.7) no. (%) and the Onychomadesis (Grade 1, treatment-emergent) was 9 (6.7) no. (%). The Palmar-plantar erythrodysesthesia syndrome (Grade 1, treatment-emergent) was 6 (4.4) no. (%), the Stomatitis (Grade 1, treatment-emergent) was 22 (16.3) no. (%) and the Weight decreased (Grade 1, treatment-emergent) was 12 (8.9) no. (%). For the same compound, the Alanine aminotransferase increased (Grade 1, treatment-related) was 18 (13.3) no. (%), the Alopecia (Grade 1, treatment-related) was 27 (20.0) no. (%) and the Anemia (Grade 1, treatment-related) was 8 (5.9) no. (%). The Aspartate aminotransferase increased (Grade 1, treatment-related) was 18 (13.3) no. (%), the Asthenia (Grade 1, treatment-related) was 4 (3.0) no. (%) and the Constipation (Grade 1, treatment-related) was 8 (5.9) no. (%). For the same compound, the Decreased appetite (Grade 1, treatment-related) was 15 (11.1) no. (%), the Diarrhea (Grade 1, treatment-related) was 43 (31.9) no. (%) and the Dry eye (Grade 1, treatment-related) was 19 (14.1) no. (%). For the same compound, the Dry mouth (Grade 1, treatment-related) was 44 (32.6) no. (%), the Dry skin (Grade 1, treatment-related) was 22 (16.3) no. (%) and the Dysgeusia (Grade 1, treatment-related) was 25 (18.5) no. (%). The Fatigue (Grade 1, treatment-related) was 12 (8.9) no. (%), the Hyperphosphatemia (Grade 1, treatment-related) was 70 (51.9) no. (%) and the Nausea (Grade 1, treatment-related) was 6 (4.4) no. (%). The Neutropenia (Grade 1, treatment-related) was 0 no. (%), the Onycholysis (Grade 1, treatment-related) was 9 (6.7) no. (%) and the Onychomadesis (Grade 1, treatment-related) was 8 (5.9) no. (%). For the same compound, the Palmar-plantar erythrodysesthesia syndrome (Grade 1, treatment-related) was 6 (4.4) no. (%), the Stomatitis (Grade 1, treatment-related) was 20 (14.8) no. (%) and the Central serous retinopathy (Grade 2) was 8 (5.9) no. (%). For the same compound, the Chorioretinopathy (Grade 2) was 3 (2.2) no. (%), the “Detachment of macular retinal pigment epithelium” value (Grade 2) was 0 no. (%) and the “Detachment of retinal pigment epithelium” value (Grade 2) was 2 (1.5) no. (%). For the same compound, the “Eye disorders” value (Grade 2) was 17 (12.6) no. (%), the Macular detachment (Grade 2) was 0 no. (%) and the Nail disorders (Grade 2) was 50 (37.0) no. (%). The Retinopathy (Grade 2) was 2 (1.5) no. (%), the Skin disorders (Grade 2) was 31 (23.0) no. (%) and the Subretinal fluid (Grade 2) was 1 (0.7) no. (%). The Hematuria (Grade 2) was 2 (1.5) no. (%), the Hyponatremia (Grade 2) was 0 no. (%) and the Urinary tract infection (Grade 2) was 0 no. (%). For the same compound, the Alanine aminotransferase increased (Grade 2, treatment-emergent) was 8 (5.9) no. (%), the Alopecia (Grade 2, treatment-emergent) was 4 (3.0) no. (%) and the Aspartate aminotransferase increased (Grade 2, treatment-emergent) was 5 (3.7) no. (%). The Asthenia (Grade 2, treatment-emergent) was 12 (8.9) no. (%), the Constipation (Grade 2, treatment-emergent) was 12 (8.9) no. (%) and the Decreased appetite (Grade 2, treatment-emergent) was 14 (10.4) no. (%). For the same compound, the Diarrhea (Grade 2, treatment-emergent) was 31 (23.0) no. (%), the Dry eye (Grade 2, treatment-emergent) was 3 (2.2) no. (%) and the Dry mouth (Grade 2, treatment-emergent) was 8 (5.9) no. (%). The Dry skin (Grade 2, treatment-emergent) was 6 (4.4) no. (%), the Dysgeusia (Grade 2, treatment-emergent) was 8 (5.9) no. (%) and the Fatigue (Grade 2, treatment-emergent) was 8 (5.9) no. (%). The Hyperphosphatemia (Grade 2, treatment-emergent) was 31 (23.0) no. (%), the Nausea (Grade 2, treatment-emergent) was 8 (5.9) no. (%) and the Neutropenia (Grade 2, treatment-emergent) was 0 no. (%). For the same compound, the Onycholysis (Grade 2, treatment-emergent) was 14 (10.4) no. (%), the Onychomadesis (Grade 2, treatment-emergent) was 17 (12.6) no. (%) and the Palmar-plantar erythrodysesthesia syndrome (Grade 2, treatment-emergent) was 22 (16.3) no. (%). The Stomatitis (Grade 2, treatment-emergent) was 32 (23.7) no. (%), the Weight decreased (Grade 2, treatment-emergent) was 15 (11.1) no. (%) and the Alanine aminotransferase increased (Grade 2, treatment-related) was 7 (5.2) no. (%). For the same compound, the Alopecia (Grade 2, treatment-related) was 4 (3.0) no. (%), the Anemia (Grade 2, treatment-related) was 4 (3.0) no. (%) and the Aspartate aminotransferase increased (Grade 2, treatment-related) was 5 (3.7) no. (%). The Asthenia (Grade 2, treatment-related) was 6 (4.4) no. (%), the Constipation (Grade 2, treatment-related) was 4 (3.0) no. (%) and the Decreased appetite (Grade 2, treatment-related) was 10 (7.4) no. (%). The Diarrhea (Grade 2, treatment-related) was 27 (20.0) no. (%), the Dry eye (Grade 2, treatment-related) was 3 (2.2) no. (%) and the Dry mouth (Grade 2, treatment-related) was 8 (5.9) no. (%). The Dry skin (Grade 2, treatment-related) was 6 (4.4) no. (%), the Dysgeusia (Grade 2, treatment-related) was 8 (5.9) no. (%) and the Fatigue (Grade 2, treatment-related) was 6 (4.4) no. (%). The Hyperphosphatemia (Grade 2, treatment-related) was 29 (21.5) no. (%), the Nausea (Grade 2, treatment-related) was 7 (5.2) no. (%) and the Neutropenia (Grade 2, treatment-related) was 0 no. (%). For the same compound, the Onycholysis (Grade 2, treatment-related) was 14 (10.4) no. (%), the Onychomadesis (Grade 2, treatment-related) was 17 (12.6) no. (%) and the Palmar-plantar erythrodysesthesia syndrome (Grade 2, treatment-related) was 22 (16.3) no. (%). For the same compound, the Stomatitis (Grade 2, treatment-related) was 31 (23.0) no. (%), the Central serous retinopathy (Grade ≥3) was 3 (2.2) no. (%) and the Chorioretinopathy (Grade ≥3) was 0 no. (%). For the same compound, the “Detachment of macular retinal pigment epithelium” value (Grade ≥3) was 1 (0.7) no. (%), the “Detachment of retinal pigment epithelium” value (Grade ≥3) was 2 (1.5) no. (%) and the “Eye disorders” value (Grade ≥3) was 3 (2.2) no. (%). The Macular detachment (Grade ≥3) was 0 no. (%), the Nail disorders (Grade ≥3) was 15 (11.1) no. (%) and the Retinopathy (Grade ≥3) was 0 no. (%). For the same compound, the Skin disorders (Grade ≥3) was 16 (11.9) no. (%), the Subretinal fluid (Grade ≥3) was 0 no. (%) and the Hematuria (Grade ≥3) was 3 (2.2) no. (%). The Hyponatremia (Grade ≥3) was 3 (2.2) no. (%), the Urinary tract infection (Grade ≥3) was 6 (4.4) no. (%) and the Alanine aminotransferase increased (Grade ≥3, treatment-emergent) was 4 (3.0) no. (%). The Alopecia (Grade ≥3, treatment-emergent) was 1 (0.7) no. (%), the Anemia (Grade ≥3, treatment-emergent) was 10 (7.4) no. (%) and the Aspartate aminotransferase increased (Grade ≥3, treatment-emergent) was 3 (2.2) no. (%). The Asthenia (Grade ≥3, treatment-emergent) was 2 (1.5) no. (%), the Constipation (Grade ≥3, treatment-emergent) was 0 no. (%) and the Decreased appetite (Grade ≥3, treatment-emergent) was 4 (3.0) no. (%). The Diarrhea (Grade ≥3, treatment-emergent) was 4 (3.0) no. (%), the Dry eye (Grade ≥3, treatment-emergent) was 0 no. (%) and the Dry mouth (Grade ≥3, treatment-emergent) was 0 no. (%). The Dry skin (Grade ≥3, treatment-emergent) was 2 (1.5) no. (%), the Dysgeusia (Grade ≥3, treatment-emergent) was 1 (0.7) no. (%) and the Fatigue (Grade ≥3, treatment-emergent) was 0 no. (%). For the same compound, the Hyperphosphatemia (Grade ≥3, treatment-emergent) was 7 (5.2) no. (%), the Nausea (Grade ≥3, treatment-emergent) was 2 (1.5) no. (%) and the Neutropenia (Grade ≥3, treatment-emergent) was 0 no. (%). The Onycholysis (Grade ≥3, treatment-emergent) was 8 (5.9) no. (%), the Onychomadesis (Grade ≥3, treatment-emergent) was 2 (1.5) no. (%) and the Palmar-plantar erythrodysesthesia syndrome (Grade ≥3, treatment-emergent) was 13 (9.6) no. (%). The Stomatitis (Grade ≥3, treatment-emergent) was 11 (8.1) no. (%), the Weight decreased (Grade ≥3, treatment-emergent) was 3 (2.2) no. (%) and the Alanine aminotransferase increased (Grade ≥3, treatment-related) was 4 (3.0) no. (%). For the same compound, the Alopecia (Grade ≥3, treatment-related) was 1 (0.7) no. (%) and the Anemia (Grade ≥3, treatment-related) was 4 (3.0) no. (%).
